From patent publication US6790848B2, “4-piperazinylindole derivatives with 5-HT6 receptor affinity” (Syntex (U.S.A.) LLC, priority 2001, dated 2004)
pKi: −log10 of the molar value. Counter-ions that a name gives are not always drawn.

target: T1, recombinant human 5-HT6 receptor (Homo sapiens, UniProt P50406); assay: Radioligand binding studies: competition for [3H]LSD binding in membranes of HEK293 cells; conditions: [3H]LSD (5 nM), HEK293 cell membranes, 60 min at 37° C., pH 7.4
T1 construct: expressed in transfected cells; cell membranes used
Experimental: The pharmacology of the compounds of this invention was determined by art recognized procedures.
The binding activity of compounds of this invention in vitro was determined as follows.
Duplicate determinations of ligand affinity are made by competing for binding of [3H]LSD in cell membranes derived from HEK293 cells stably expressing recombinant human 5-HT6 receptor.
All determinations are made in assay buffer containing 50 mM Tris-HCl, 10 mM MgSO4, 0.5 mM EDTA, 1 mM ascorbic acid, pH 7.4 at 37° C., in a 250 microliter reaction volume. Assay tubes containing [3H] LSD (5 nM), competing ligand, and membrane are incubated in a shaking water bath for 60 min. at 37° C., filtered onto Packard GF-B plates (pre-soaked with 0.3% PEI) using a Packard 96 well cell harvester and washed 3 times in ice cold 50 mM Tris-HCl. Bound [3H] LSD is determined as radioactive counts per minute using Packard TopCount.
Displacement of [3H]LSD from the binding sites was quantified by fitting concentration-binding data to a 4-parameter logistic equation: [formula]
where Hill is the Hill slope, [ligand] is the concentration of competing radioligand and IC50 is the concentration of radioligand producing half-maximal specific binding of radioligand. The specific binding window is the difference between the Bmax and the basal parameters.

T1 sequence (P50406 whole entry): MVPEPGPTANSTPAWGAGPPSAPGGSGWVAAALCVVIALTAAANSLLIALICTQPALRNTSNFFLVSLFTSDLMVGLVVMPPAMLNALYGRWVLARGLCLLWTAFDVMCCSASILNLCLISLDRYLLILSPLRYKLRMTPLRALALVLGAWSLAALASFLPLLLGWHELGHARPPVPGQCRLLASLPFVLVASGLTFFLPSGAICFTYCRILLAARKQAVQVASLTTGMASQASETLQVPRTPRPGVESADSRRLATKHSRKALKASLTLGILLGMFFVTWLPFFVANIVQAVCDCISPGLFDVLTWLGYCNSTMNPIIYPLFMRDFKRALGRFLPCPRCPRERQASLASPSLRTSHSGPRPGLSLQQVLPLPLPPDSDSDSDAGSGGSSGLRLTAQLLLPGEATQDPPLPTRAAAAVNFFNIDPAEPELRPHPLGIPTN

SMILES	pKi
O=S(=O)(c1ccc(Cl)cc1)n1ccc2c(N3CCNCC3)cccc21 [1-(4-chloro-benzenesulfonyl)-4-piperazin-1-yl-1H-indole]	9.27
O=S(=O)(c1cc(Cl)cc(Cl)c1)n1ccc2c(N3CCNCC3)cccc21 [1-(3,5-Dichloro-benzenesulfonyl)-4-piperazin-1-yl-1H-indole]	9.43
CS(=O)(=O)c1ccccc1S(=O)(=O)n1ccc2c(N3CCNCC3)cccc21 [1-(2-methanesulfonyl-benzenesulfonyl)-4-piperazin-1-yl-1H-indole]	7.78
CS(=O)(=O)c1ccc(F)c(S(=O)(=O)n2ccc3c(N4CCNCC4)cccc32)c1 [1-(2-fluoro-5-methanesulfonyl-benzenesulfonyl)-4-piperazin-1-yl-1H-indole]	7.86

Second part, the molecule after the results:

pKi	SMILES
8.72	CC(C)CS(=O)(=O)c1cccc(S(=O)(=O)n2ccc3c(N4CCNCC4)cccc32)c1 [1-[3-(2-methyl-propane-1-sulfonyl)-benzenesulfonyl]-4-piperazin-1-yl-1H-indole]
8.12	CS(=O)(=O)c1cc(Br)cc(S(=O)(=O)n2ccc3c(N4CCNCC4)cccc32)c1 [1-(3-bromo-5-methanesulfonyl-benzenesulfonyl)-4-piperazin-1-yl-1H-indole]

test system: not given; assay: not given; conditions: not given

SMILES	melting point
O=S(=O)(c1c(F)cccc1F)n1ccc2c(N3CCNCC3)cccc21 (as salt: trifluoroacetate)	223 to 224 °C
N#Cc1cccc(S(=O)(=O)n2ccc3c(N4CCNCC4)cccc32)c1 (as salt: trifluoroacetate) [3-(4-piperazin-1-yl-indole-1-sulfonyl)-benzonitrile]	238 °C (dec.)
COc1ccc(OC)c(S(=O)(=O)n2ccc3c(N4CCNCC4)cccc32)c1 (as salt: trifluoroacetate) [1-(2,5-dimethoxy-benzenesulfonyl)-4-piperazin-1-yl-1H-indole]	245 to 246 °C (dec.)
O=S(=O)(c1cccc(F)c1)n1ccc2c(N3CCNCC3)cccc21 (as salt: trifluoroacetate) [1-(3-fluoro-benzenesulfonyl)-4-piperazin-1-yl-1H-indole]	227 to 228 °C (dec.)
O=S(=O)(c1ccccc1)n1cc(Br)c2c(N3CCNCC3)cccc21 (as salt: hydrochloride) [1-benzenesulfonyl-3-bromo-4-piperazin-1-yl-1H-indole]	304 to 305 °C
O=S(=O)(c1cc(Cl)cc(Cl)c1)n1ccc2c(N3CCNCC3)cccc21 (as salt: hydrochloride) [1-(3,5-Dichloro-benzenesulfonyl)-4-piperazin-1-yl-1H-indole]	156 to 157 °C
CS(=O)(=O)c1ccccc1S(=O)(=O)n1ccc2c(N3CCNCC3)cccc21 (as salt: trifluoroacetate) [1-(2-methanesulfonyl-benzenesulfonyl)-4-piperazin-1-yl-1H-indole]	171 °C
O=S(=O)(c1cccc(C(F)(F)F)c1)n1ccc2c(N3CCNCC3)cccc21 (as salt: hydrochloride) [4-piperazin-1-yl-1-(3-trifluoromethyl-benzenesulfonyl)-1H-indole]	256 to 257 °C
O=S(=O)(c1cccs1)n1ccc2c(N3CCNCC3)cccc21 (as salt: trifluoroacetate) [4-piperazin-1-yl-1-(thiophene-2-sulfonyl)-1H-indole]	208 to 209 °C
O=S(=O)(c1ccc(F)cc1)n1ccc2c(N3CCNCC3)cccc21 (as salt: hydrochloride) [1-(4-fluoro-benzenesulfonyl)-4-piperazin-1-yl-1H-indole]	203 to 204 °C
O=S(=O)(c1ccc(Cl)cc1)n1ccc2c(N3CCNCC3)cccc21 (as salt: trifluoroacetate) [1-(4-chloro-benzenesulfonyl)-4-piperazin-1-yl-1H-indole]	193 to 194 °C
COc1cccc(S(=O)(=O)n2ccc3c(N4CCNCC4)cccc32)c1 (as salt: trifluoroacetate) [1-(3-methoxy-benzenesulfonyl)-4-piperazin-1-yl-1H-indole]	221 °C (dec.)
O=S(=O)(c1cc(Cl)ccc1Cl)n1ccc2c(N3CCNCC3)cccc21 (as salt: trifluoroacetate) [1-(2,5-dichloro-benzenesulfonyl)-4-piperazin-1-yl-1H-indole]	237 to 238 °C (dec.)

Next, values leading:

melting point	SMILES
172 to 173 °C (dec.)	CS(=O)(=O)c1ccc(F)c(S(=O)(=O)n2ccc3c(N4CCNCC4)cccc32)c1 (as salt: trifluoroacetate) [1-(2-fluoro-5-methanesulfonyl-benzenesulfonyl)-4-piperazin-1-yl-1H-indole]
151 to 152 °C	CN1CCN(c2cccc3c2ccn3S(=O)(=O)c2ccc(F)cc2)CC1 (as salt: hydrochloride) [1-(4-fluoro-benzenesulfonyl)-4-(4-methyl-piperazin-1-yl)-1H-indole]
220 to 222 °C	CC(C)CS(=O)(=O)c1cccc(S(=O)(=O)n2ccc3c(N4CCNCC4)cccc32)c1 (as salt: trifluoroacetate) [1-[3-(2-methyl-propane-1-sulfonyl)-benzenesulfonyl]-4-piperazin-1-yl-1H-indole]
230 to 231 °C	Cn1cnc(S(=O)(=O)n2ccc3c(N4CCNCC4)cccc32)c1 (as salt: trifluoroacetate)
234 to 235 °C (dec.)	CS(=O)(=O)c1ccc(S(=O)(=O)n2ccc3c(N4CCNCC4)cccc32)cc1 (as salt: trifluoroacetate) [1-(4-methanesulfonyl-benzenesulfonyl)-4-piperazin-1-yl-1H-indole]
173 to 174 °C	CCCS(=O)(=O)c1cccc(S(=O)(=O)n2ccc3c(N4CCNCC4)cccc32)c1 (as salt: trifluoroacetate) [4-piperazin-1-yl-1-[3-(propane-1-sulfonyl)-benzenesulfonyl]-1H-indole]
158 to 159 °C	O=S(=O)(c1cccc(Br)c1)n1ccc2c(N3CCNCC3)cccc21 (as salt: hydrochloride)
231 to 232 °C (dec.)	CC(C)(C)c1ccc(S(=O)(=O)n2ccc3c(N4CCNCC4)cccc32)cc1 (as salt: trifluoroacetate) [1-(4-ter-butyl-benzenesulfonyl)-4-piperazin-1-yl-1H-indole]
166 to 167 °C	CCS(=O)(=O)c1cccc(S(=O)(=O)n2ccc3c(N4CCNCC4)cccc32)c1 (as salt: hydrochloride) [1-(3-ethanesulfonyl-benzenesulfonyl)-4-piperazin-1-yl-1H-indole]
